In ChEMBL document CHEMBL1139487, “Discovery of corticotropin releasing factor 2 receptor selective sauvagine analogues for treatment of skeletal muscle atrophy” (J Med Chem, 2005):

Experiments:
Mus musculus [1] = assay: In vivo percentage inhibition against casting induced tibialis anterior mass loss in mouse at a dosage of 100 ug/kg/day; assay type: functional
Mus musculus [2] = species on record: Mus musculus; assay: Selectivity ratio of EC50s for mouse corticotropin releasing factor receptors 1 and 2
[3] = target: T1, Corticotropin-releasing factor receptor 1 (Mus musculus) (UniProt P35347); assay: In vitro agonistic activity against mouse corticotropin releasing factor 1 receptor; assay type: functional
T1 sequence (whole entry): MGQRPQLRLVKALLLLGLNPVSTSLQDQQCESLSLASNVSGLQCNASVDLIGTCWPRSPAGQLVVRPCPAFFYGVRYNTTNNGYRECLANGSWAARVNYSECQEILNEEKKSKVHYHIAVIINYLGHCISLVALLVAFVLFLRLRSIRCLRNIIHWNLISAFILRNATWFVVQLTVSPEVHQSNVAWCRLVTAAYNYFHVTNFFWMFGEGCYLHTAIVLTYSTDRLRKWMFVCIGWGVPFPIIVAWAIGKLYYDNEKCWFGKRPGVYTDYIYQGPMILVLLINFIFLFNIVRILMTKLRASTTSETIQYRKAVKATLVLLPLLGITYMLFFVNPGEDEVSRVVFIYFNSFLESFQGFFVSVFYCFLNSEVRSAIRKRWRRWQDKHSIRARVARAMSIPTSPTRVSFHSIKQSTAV

[4] = target: Corticotropin-releasing factor receptor 2 (Mus musculus) (UniProt Q60748); assay: In vitro agonistic activity against mouse corticotropin releasing factor 2 receptor; assay type: functional
Corticotropin-releasing factor receptor 2 (Mus musculus), sequence (Q60748 whole entry): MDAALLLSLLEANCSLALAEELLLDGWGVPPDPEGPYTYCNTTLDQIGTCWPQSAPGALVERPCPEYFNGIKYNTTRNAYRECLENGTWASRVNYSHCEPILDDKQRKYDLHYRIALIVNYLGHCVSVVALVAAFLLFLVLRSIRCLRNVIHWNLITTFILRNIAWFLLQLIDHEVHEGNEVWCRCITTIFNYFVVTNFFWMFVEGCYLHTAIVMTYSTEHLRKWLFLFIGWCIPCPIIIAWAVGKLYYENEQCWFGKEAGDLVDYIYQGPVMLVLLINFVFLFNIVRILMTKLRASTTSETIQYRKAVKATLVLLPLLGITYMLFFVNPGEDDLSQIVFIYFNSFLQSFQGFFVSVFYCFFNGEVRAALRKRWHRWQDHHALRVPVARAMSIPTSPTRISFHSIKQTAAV

Mus musculus [5] = assay: In vivo percentage inhibition against casting induced tibialis anterior mass loss in mouse at a dosage of 30 ug/kg/day; assay type: functional
Mus musculus [6] = assay: In vivo percentage inhibition against casting induced tibialis anterior mass loss in mouse at a dosage of 10 ug/kg/day; assay type: functional
[7] = target: T2, Corticotropin-releasing factor receptor 1 (Mus musculus, UniProt P35347); assay: In vitro effective concentration for mouse corticotropin releasing factor 1 receptor
T2 sequence (P35347 whole entry): T1 sequence (whole entry)

[8] = target: Corticotropin-releasing factor receptor 2 (Mus musculus, UniProt Q60748); assay: In vitro effective concentration for mouse corticotropin releasing factor 2 receptor
Corticotropin-releasing factor receptor 2, sequence (Q60748 whole entry): as above

Row | Compound | inhibition in vivo at 0.1 mg/kg/day (Mus musculus [1]) | Selectivity (Mus musculus [2]) | Emax [3] | Emax [4] | inhibition in vivo at 0.03 mg/kg/day (Mus musculus [5]) | inhibition in vivo at 0.01 mg/kg/day (Mus musculus [6]) | EC50 [7] | EC50 [8]
1 | CC[C@H](C)[C@H](NC(=O)[C@@H](NC(=O)[C@H](CC(=O)O)NC(=O)[C@H](CC(C)C)NC(=O)[C@H](CC(C)C)NC(=O)[C@H](CC(C)C)NC(=O)[C@H](CCCN=C(N)N)NC(=O)[C@H](CC(N)=O)NC(=O)[C@H](CC(N)=O)NC(=O)[C@H](C)NC(=O)[C@H](C)NC(=O)[C@H](CCC(N)=O)NC(=O)[C@H](CCC(N)=O)NC(=O)[C@H](CCCCN)NC(=O)[C@H](CCC(=O)O)NC(=O)[C@H](CCCCN)NC(=O)[C@H](CCC(=O)O)NC(=O)[C@H](CCC(N)=O)NC(=O)[C@H](CCCCN)NC(=O)[C@H](CCC(=O)O)NC(=O)[C@@H](NC(=O)[C@H](CCC(=O)O)NC(=O)[C@@H](NC(=O)[C@H](CCSC)NC(=O)[C@H](CCCCN)NC(=O)[C@H](CCCN=C(N)N)NC(=O)[C@H](CC(C)C)NC(=O)[C@H](CC(C)C)NC(=O)[C@@H](NC(=O)[C@H](CCC(N)=O)NC(=O)[C@@H]1CCCN1C(=O)[C@H](CC(C)C)NC(=O)[C@H](CC(=O)O)NC(=O)[C@@H](NC(=O)[C@H](CO)NC(=O)[C@@H](NC(=O)[C@@H]1CCCN1C(=O)[C@@H]1CCCN1C(=O)CNC(=O)[C@@H]1CCC(=O)N1)[C@@H](C)CC)[C@@H](C)CC)[C@@H](C)CC)[C@@H](C)CC)[C@@H](C)CC)[C@@H](C)O)C(=O)O | 73% | 83 | 93% | 93% | 14% | 32% | – | –
2 | CC[C@H](C)[C@H](NC(=O)[C@@H](NC(=O)[C@H](CC(=O)O)NC(=O)[C@H](CC(C)C)NC(=O)[C@H](CC(C)C)NC(=O)[C@H](CC(C)C)NC(=O)[C@H](CCCN=C(N)N)NC(=O)[C@H](CC(N)=O)NC(=O)[C@H](CC(N)=O)NC(=O)[C@H](C)NC(=O)[C@H](C)NC(=O)[C@H](CCC(N)=O)NC(=O)[C@H](CCC(N)=O)NC(=O)[C@H](CCCCN)NC(=O)[C@H](CCC(=O)O)NC(=O)[C@H](CCCCN)NC(=O)[C@H](CCC(=O)O)NC(=O)[C@H](CCC(N)=O)NC(=O)[C@H](CCCCN)NC(=O)[C@H](CCC(=O)O)NC(=O)[C@@H](NC(=O)[C@H](CCC(=O)O)NC(=O)[C@@H](NC(=O)[C@H](CCSC)NC(=O)[C@H](CCCCN)NC(=O)[C@H](CCCN=C(N)N)NC(=O)[C@H](CC(C)C)NC(=O)[C@H](CC(C)C)NC(=O)[C@H](Cc1ccccc1)NC(=O)[C@H](CCC(N)=O)NC(=O)[C@@H]1CCCN1C(=O)[C@H](CC(C)C)NC(=O)[C@H](CC(=O)O)NC(=O)[C@@H](NC(=O)[C@H](CO)NC(=O)[C@@H](NC(=O)[C@@H]1CCCN1C(=O)[C@@H]1CCCN1C(=O)CNC(=O)[C@@H]1CCC(=O)N1)[C@@H](C)CC)[C@@H](C)CC)[C@@H](C)CC)[C@@H](C)CC)[C@@H](C)O)C(=O)O | – | 28 | 100% | 100% | – | – | 236 nM | 8.5 nM
3 | CC[C@H](C)[C@H](NC(=O)[C@@H](NC(=O)[C@H](CC(=O)O)NC(=O)[C@H](CC(C)C)NC(=O)[C@H](CC(C)C)NC(=O)[C@H](CC(C)C)NC(=O)[C@H](CCCN=C(N)N)NC(=O)[C@H](CC(N)=O)NC(=O)[C@H](CC(N)=O)NC(=O)[C@H](C)NC(=O)[C@H](C)NC(=O)[C@H](CCC(N)=O)NC(=O)[C@H](CCC(N)=O)NC(=O)[C@H](CCCCN)NC(=O)[C@H](CCC(=O)O)NC(=O)[C@H](CCCCN)NC(=O)[C@H](CCC(=O)O)NC(=O)[C@H](CCC(N)=O)NC(=O)[C@H](CCCCN)NC(=O)[C@H](CCC(=O)O)NC(=O)[C@@H](NC(=O)[C@H](CCC(=O)O)NC(=O)[C@@H](NC(=O)[C@H](CCSC)NC(=O)[C@H](CCCCN)NC(=O)[C@H](CCCN=C(N)N)NC(=O)[C@H](CC(C)C)NC(=O)[C@H](CC(C)C)NC(=O)[C@H](Cc1ccc(O)cc1)NC(=O)[C@H](CC(N)=O)NC(=O)[C@@H]1CCCN1C(=O)[C@H](CC(C)C)NC(=O)[C@H](CC(=O)O)NC(=O)[C@@H](NC(=O)[C@H](CO)NC(=O)[C@@H](NC(=O)[C@@H]1CCCN1C(=O)[C@@H]1CCCN1C(=O)CNC(=O)[C@@H]1CCC(=O)N1)[C@@H](C)CC)[C@@H](C)CC)[C@@H](C)CC)[C@@H](C)CC)[C@@H](C)O)C(=O)O | – | 10 | 100% | 93% | – | – | 220 nM | 21.6 nM
4 | CC[C@H](C)[C@H](NC(=O)[C@@H](NC(=O)[C@H](CC(=O)O)NC(=O)[C@H](CC(C)C)NC(=O)[C@H](CC(C)C)NC(=O)[C@H](CC(C)C)NC(=O)[C@H](CCCN=C(N)N)NC(=O)[C@H](CC(N)=O)NC(=O)[C@H](CC(N)=O)NC(=O)[C@H](C)NC(=O)[C@H](C)NC(=O)[C@H](CCC(N)=O)NC(=O)[C@H](CCC(N)=O)NC(=O)[C@H](CCCCN)NC(=O)[C@H](CCC(=O)O)NC(=O)[C@H](CCCCN)NC(=O)[C@H](CCC(=O)O)NC(=O)[C@H](CCC(N)=O)NC(=O)[C@H](CCCCN)NC(=O)[C@H](CCC(=O)O)NC(=O)[C@@H](NC(=O)[C@H](CCC(=O)O)NC(=O)[C@@H](NC(=O)[C@H](CCSC)NC(=O)[C@H](CCCCN)NC(=O)[C@H](CCCN=C(N)N)NC(=O)[C@H](CC(C)C)NC(=O)[C@H](CC(C)C)NC(=O)[C@H](CC(C)C)NC(=O)[C@H](CCC(N)=O)NC(=O)[C@@H]1CCCN1C(=O)[C@H](CC(C)C)NC(=O)[C@H](CC(=O)O)NC(=O)[C@@H](NC(=O)[C@H](CO)NC(=O)[C@@H](NC(=O)[C@@H]1CCCN1C(=O)[C@@H]1CCCN1C(=O)CNC(=O)[C@@H]1CCC(=O)N1)[C@@H](C)CC)[C@@H](C)CC)[C@@H](C)CC)[C@@H](C)CC)[C@@H](C)O)C(=O)O | – | 16 | 96% | 93% | – | – | 447 nM | 27.6 nM
5 | CC[C@H](C)[C@H](NC(=O)[C@@H](NC(=O)[C@H](CC(=O)O)NC(=O)[C@H](CC(C)C)NC(=O)[C@H](CC(C)C)NC(=O)[C@H](CC(C)C)NC(=O)[C@H](CCCN=C(N)N)NC(=O)[C@H](CC(N)=O)NC(=O)[C@H](CC(N)=O)NC(=O)[C@H](C)NC(=O)[C@H](C)NC(=O)[C@H](CCC(N)=O)NC(=O)[C@H](CCC(N)=O)NC(=O)[C@H](CCCCN)NC(=O)[C@H](CCC(=O)O)NC(=O)[C@H](CCCCN)NC(=O)[C@H](CCC(=O)O)NC(=O)[C@H](CCC(N)=O)NC(=O)[C@H](CCCCN)NC(=O)[C@H](CCC(=O)O)NC(=O)[C@@H](NC(=O)[C@H](CCC(=O)O)NC(=O)[C@@H](NC(=O)[C@H](CCSC)NC(=O)[C@H](CCCCN)NC(=O)[C@H](CCCN=C(N)N)NC(=O)[C@H](CC(C)C)NC(=O)[C@H](CC(C)C)NC(=O)[C@H](Cc1c[nH]c2ccccc12)NC(=O)[C@H](Cc1c[nH]cn1)NC(=O)[C@@H]1CCCN1C(=O)[C@H](CC(C)C)NC(=O)[C@H](CC(=O)O)NC(=O)[C@@H](NC(=O)[C@H](CO)NC(=O)[C@@H](NC(=O)[C@@H]1CCCN1C(=O)[C@@H]1CCCN1C(=O)CNC(=O)[C@@H]1CCC(=O)N1)[C@@H](C)CC)[C@@H](C)CC)[C@@H](C)CC)[C@@H](C)CC)[C@@H](C)O)C(=O)O | – | 16 | 100% | 100% | – | – | 408 nM | 25.1 nM
6 | CC[C@H](C)[C@H](NC(=O)[C@@H](NC(=O)[C@H](CC(=O)O)NC(=O)[C@H](CC(C)C)NC(=O)[C@H](CC(C)C)NC(=O)[C@H](CC(C)C)NC(=O)[C@H](CCCN=C(N)N)NC(=O)[C@H](CC(N)=O)NC(=O)[C@H](CC(N)=O)NC(=O)[C@H](C)NC(=O)[C@H](C)NC(=O)[C@H](CCC(N)=O)NC(=O)[C@H](CCC(N)=O)NC(=O)[C@H](CCCCN)NC(=O)[C@H](CCC(=O)O)NC(=O)[C@H](CCCCN)NC(=O)[C@H](CCC(=O)O)NC(=O)[C@H](CCC(N)=O)NC(=O)[C@H](CCCCN)NC(=O)[C@H](CCC(=O)O)NC(=O)[C@@H](NC(=O)[C@H](CCC(=O)O)NC(=O)[C@@H](NC(=O)[C@H](CCSC)NC(=O)[C@H](CCCCN)NC(=O)[C@H](CCCN=C(N)N)NC(=O)[C@H](CC(C)C)NC(=O)[C@H](CC(C)C)NC(=O)[C@H](Cc1c[nH]c2ccccc12)NC(=O)[C@H](CC(C)C)NC(=O)[C@@H]1CCCN1C(=O)[C@H](CC(C)C)NC(=O)[C@H](CC(=O)O)NC(=O)[C@@H](NC(=O)[C@H](CO)NC(=O)[C@@H](NC(=O)[C@@H]1CCCN1C(=O)[C@@H]1CCCN1C(=O)CNC(=O)[C@@H]1CCC(=O)N1)[C@@H](C)CC)[C@@H](C)CC)[C@@H](C)CC)[C@@H](C)CC)[C@@H](C)O)C(=O)O | – | 20 | 100% | 96% | – | – | 98.4 nM | 4.8 nM
